Measured values: patent publication US20190134000A1, “COMPOUNDS TO PROMOTE NORMAL PROCESSING OF APP” (Buck Institute for Research on Aging, priority 2016, published 2019)
pIC50: −log10 of the molar value.

How the values were obtained:
CYP2D6 = CYP2D6 (Homo sapiens, UniProt P10635); assay: CYP inhibition screen CYP2D6; type: in vitro ADME
S9 stability, rat = type: in vitro ADME
in vitro = assay: in vitro
Procedure: The second batch of C41 was tested for plasma protein binding, ADME-tox screening (microsomal intrinsic clearance), and ADME-tox screening (CYP inhibition screen). PK in rats was determined to determine a dose of non-GLP Pharm-Tox screening. Additionally, acute toxicity in rats (pre-subchronic toxicity) and non-GLP subchronic toxicity was determined.

in vivo = settings: rat
Procedure: Top panel: Levels after oral delivery at 10 mk at 1, 8, and 24 hours; levels after oral delivery at 40 mk at 24 hours only. Bottom panel: IV delivery at 2.5 mk. Note brain levels in ng/g, plasma levels in ng/ml.
FIG. 13 illustrates C41 pharmacokinetic parameters in rat.
C41 pharmacokinetics were determined in a rat (see, FIG. 12, Table 9). […] Brain tissue was collected at 1, 8, and 24 hours. Plasma peak was 150 ng/ml and brain was 3251 ng/g. C41 peaked at 8 hours. […] Brain tissue was collected at 30 min, 6 hours, and 24 hours. Plasma peak was 564 ng/ml, at 1 minute and brain peak was 629 ng/g at 30 minutes. The 30 minute brain:plasma ratio was 8. Oral availability was determined to be about 100% (see, e.g. FIG. 13).

CYP2C9 = CYP2C9 (Homo sapiens, UniProt P11712); assay: CYP inhibition screen CYP2C9; type: in vitro ADME
hERG receptor = hERG receptor (Homo sapiens, UniProt Q12809); type: binding
sAPPα in SH-SY5Y cells = assay: Primary screen, effect on sAPPα in SH-SY5Y cells (AlphaLISA); type: cell-based, human; settings: ↑ increase
Excerpt: Compound C41 was initially identified by screening a library of compounds in a series of steps. First compounds were screened in a primary screen to determine the effect on sAPPα in SH-SYSY cells (see, e.g., FIG. 4). Compounds that elicited an increase in sAPPα of at least 10% were subjected to a secondary screen in CHO-7W cells for their effect on sAPPα and Aβ (see, e.g., FIG. 5).

α7 = α7 (Homo sapiens, UniProt P36544); assay: Target binding α7
AD model mouse = assay: In vivo study of C41 and F03 in an AD model mouse
Excerpt: Panel A: Novel object preference; Panel B: Novel location preference; Panel C: sAPPα.
Panel A: sAPPβ; Panel B: the sAPPα/sAPPβ ratio.
Compounds meeting the initial screening criteria were then subjected to in vivo testing.

Sequence of CYP2C9 (P11712 whole entry): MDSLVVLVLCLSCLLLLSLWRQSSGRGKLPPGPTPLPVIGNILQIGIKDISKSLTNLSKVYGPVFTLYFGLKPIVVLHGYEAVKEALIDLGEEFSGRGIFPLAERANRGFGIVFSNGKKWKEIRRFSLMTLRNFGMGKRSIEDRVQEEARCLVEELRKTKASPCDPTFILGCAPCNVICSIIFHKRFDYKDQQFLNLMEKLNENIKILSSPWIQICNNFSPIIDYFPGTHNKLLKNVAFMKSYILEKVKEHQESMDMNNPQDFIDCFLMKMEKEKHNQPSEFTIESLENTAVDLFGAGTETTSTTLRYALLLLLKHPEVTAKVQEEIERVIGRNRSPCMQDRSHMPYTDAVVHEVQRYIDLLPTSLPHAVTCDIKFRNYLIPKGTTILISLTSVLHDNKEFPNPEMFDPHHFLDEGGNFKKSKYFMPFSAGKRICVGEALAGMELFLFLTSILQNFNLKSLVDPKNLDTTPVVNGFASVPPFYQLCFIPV
Sequence of CYP2D6 (P10635 whole entry): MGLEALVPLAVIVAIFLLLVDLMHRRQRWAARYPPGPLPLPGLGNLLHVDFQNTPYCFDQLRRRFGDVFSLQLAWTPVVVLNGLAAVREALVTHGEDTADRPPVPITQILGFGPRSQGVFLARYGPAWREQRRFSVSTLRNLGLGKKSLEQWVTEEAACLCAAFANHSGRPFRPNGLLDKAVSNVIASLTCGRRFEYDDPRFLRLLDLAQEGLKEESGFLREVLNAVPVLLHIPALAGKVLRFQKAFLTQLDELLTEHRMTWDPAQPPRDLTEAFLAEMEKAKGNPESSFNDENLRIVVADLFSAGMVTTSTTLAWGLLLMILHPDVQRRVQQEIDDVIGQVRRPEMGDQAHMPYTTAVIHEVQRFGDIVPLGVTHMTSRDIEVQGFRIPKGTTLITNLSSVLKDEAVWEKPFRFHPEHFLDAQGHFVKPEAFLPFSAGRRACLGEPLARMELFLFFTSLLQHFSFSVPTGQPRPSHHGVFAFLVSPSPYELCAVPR
Sequence of hERG receptor (Q12809 whole entry): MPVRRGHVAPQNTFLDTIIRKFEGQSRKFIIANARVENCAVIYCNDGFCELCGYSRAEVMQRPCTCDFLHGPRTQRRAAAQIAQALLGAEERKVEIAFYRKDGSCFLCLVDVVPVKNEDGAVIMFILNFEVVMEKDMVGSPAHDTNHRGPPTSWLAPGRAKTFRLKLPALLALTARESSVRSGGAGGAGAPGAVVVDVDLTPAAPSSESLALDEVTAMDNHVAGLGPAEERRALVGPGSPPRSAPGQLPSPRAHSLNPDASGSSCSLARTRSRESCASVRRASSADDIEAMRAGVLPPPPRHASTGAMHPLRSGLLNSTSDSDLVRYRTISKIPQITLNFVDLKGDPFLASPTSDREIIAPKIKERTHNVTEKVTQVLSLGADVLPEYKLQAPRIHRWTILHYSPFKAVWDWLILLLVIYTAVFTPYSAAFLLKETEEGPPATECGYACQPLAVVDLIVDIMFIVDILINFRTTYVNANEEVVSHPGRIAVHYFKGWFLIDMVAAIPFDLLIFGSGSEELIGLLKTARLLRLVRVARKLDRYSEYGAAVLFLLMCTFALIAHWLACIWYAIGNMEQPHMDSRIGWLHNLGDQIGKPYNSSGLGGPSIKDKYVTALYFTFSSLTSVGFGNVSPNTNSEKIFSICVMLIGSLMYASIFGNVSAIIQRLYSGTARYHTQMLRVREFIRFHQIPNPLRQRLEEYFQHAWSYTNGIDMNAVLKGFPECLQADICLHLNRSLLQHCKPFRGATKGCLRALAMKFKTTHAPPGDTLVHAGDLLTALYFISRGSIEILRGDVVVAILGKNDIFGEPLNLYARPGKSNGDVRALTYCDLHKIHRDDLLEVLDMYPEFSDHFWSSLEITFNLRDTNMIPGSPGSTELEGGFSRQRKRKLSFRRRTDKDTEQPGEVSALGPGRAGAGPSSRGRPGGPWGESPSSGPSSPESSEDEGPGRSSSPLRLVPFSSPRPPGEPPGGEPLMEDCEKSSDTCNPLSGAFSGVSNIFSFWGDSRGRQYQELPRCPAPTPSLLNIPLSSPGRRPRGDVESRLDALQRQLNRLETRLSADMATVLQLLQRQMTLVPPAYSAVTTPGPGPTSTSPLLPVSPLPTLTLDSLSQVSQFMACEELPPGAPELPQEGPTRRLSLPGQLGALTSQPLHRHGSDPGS
Sequence of α7 (P36544 23-502): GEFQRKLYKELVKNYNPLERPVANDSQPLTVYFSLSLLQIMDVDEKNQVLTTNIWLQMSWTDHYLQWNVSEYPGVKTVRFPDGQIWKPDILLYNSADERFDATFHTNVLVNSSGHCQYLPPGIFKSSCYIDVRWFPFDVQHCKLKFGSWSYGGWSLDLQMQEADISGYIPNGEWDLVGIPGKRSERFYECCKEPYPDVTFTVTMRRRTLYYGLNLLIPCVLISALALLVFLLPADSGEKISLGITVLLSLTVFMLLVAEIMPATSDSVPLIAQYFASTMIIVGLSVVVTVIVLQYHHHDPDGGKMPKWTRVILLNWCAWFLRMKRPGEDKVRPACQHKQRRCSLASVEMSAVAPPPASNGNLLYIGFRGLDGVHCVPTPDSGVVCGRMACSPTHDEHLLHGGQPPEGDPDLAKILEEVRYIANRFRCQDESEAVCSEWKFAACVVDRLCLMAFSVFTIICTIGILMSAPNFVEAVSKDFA

With CN1[C@@H]2CC[C@H]1C[C@@H](OC(=O)c1c[nH]c3cc(F)ccc13)C2 [Compound C41, (1R,3R,5S)-8-methyl-8-azabicyclo[3.2.1]octan-3-yl 6-fluoro-1H-indole-3-carboxylate] the pIC50 (CYP2D6) was < 4.52, the inhibition at 10 µM (CYP2D6; human) was 19.9% and the inhibition at 30 µM (CYP2D6; human) was 36.1%. It also gave a half-life (S9 stability, rat) of 0.363 h, a microsomal CLint at 1 μM (in vitro; dog, microsomes, NADPH-Dependent CLint) of 45.7 µL/min/mg and a half-life at 1 μM (in vitro; dog, microsomes, NADPH-Dependent T1/2) of 0.843 h. For the same molecule, the microsomal CLint at 1 μM (in vitro; dog, microsomes, NADPH-Free CLint) was < 9.6 µL/min/mg, the half-life at 1 μM (in vitro; dog, microsomes, NADPH-Free T1/2) was > 4 h and the Plasma protein binding (in vitro; human) was 74.3 (human). The recovery (in vitro; human) was 115%, the half-life (in vitro; human, microsomes) was > 4 h and the half-life at 1 μM (in vitro; human, microsomes) was > 4 h. The microsomal CLint at 1 μM (in vitro; human, microsomes) was < 9.6 µL/min/mg, the “NADPH-Free CLint” value (in vitro; human, microsomes, 1 μM) was <9.6 µL/min/mg and the “NADPH-Free T1/2” value (in vitro; human, microsomes, 1 μM) was >4 h. The “Mean Plasma Fraction Bound” value (in vitro; human, plasma) was 74.3%, the fraction unbound (in vitro; human, plasma) was 0.257 and the microsomal CLint at 1 μM (in vitro; rat, microsomes, NADPH-Dependent CLint) was 187 µL/min/mg. The half-life at 1 μM (in vitro; rat, microsomes, NADPH-Dependent T1/2) was 0.207 h, the microsomal CLint at 1 μM (in vitro; rat, microsomes, NADPH-Free CLint) was < 9.6 µL/min/mg and the half-life at 1 μM (in vitro; rat, microsomes, NADPH-Free T1/2) was > 4 h. The Oral availability (in vivo) was “about 100%”, the bioavailability (in vivo) was ~98% and the “AUC (0-t)” value (in vivo; iv) was “AUC (0-t) ng-min/g = 400605.0”. The AUC(0-t) (in vivo; iv) was 330 ng·h/mL, the “Clearance (CL)” value (in vivo; iv) was “Clearance (CL) g/min/Kg = 0.006” and the Kp at 0.5 h (in vivo; iv) was 8. For the same molecule, the “Volume of distribution steady state” value (in vivo; iv) was “g/Kg = 2.9”, the clearance (in vivo; iv) was 112 mL/min/kg and the AUC (in vivo; iv, 2.5 mg/kg) was 373 ng·h/mL. It also gave an MRT (in vivo; iv, 2.5 mg/kg, MRT) of 6.63 h, a Cmax (in vivo; iv, Cmax) of 629 ng/g and a Cmax (in vivo; iv, Cmax plasma) of 564 ng/mL. For the same molecule, the MRT (in vivo; iv, Mean residence time (MRT)) was 6.64 h, the MRT (in vivo; iv, Mean residence time (MRT) area) was 8.33 h and the “AUC (0-t)” value (in vivo; po) was “AUC (0-t) ng-min/g = 793672.5”. The AUC(0-t) (in vivo; po) was 1970 ng·h/mL, the “Clearance (CL)” value (in vivo; po) was “Clearance (CL) g/min/Kg = 0.087” and the T1/2 elimination (in vivo; po) was “T1/2 elimination = 154.022 min”. For the same molecule, the clearance (in vivo; po) was 84 mL/min/kg, the time of peak (in vivo; po) was 8 h and the AUC (in vivo; po, 10 mg/kg) was 1970 ng·h/mL. The MRT (in vivo; po, 10 mg/kg, MRT) was 21.7 h, the Cmax (in vivo; po, Cmax) was 3250 ng/g and the Cmax (in vivo; po, Cmax plasma) was 150 ng/mL. The half-life (in vivo; po, T1/2 elimination) was 2.41 h, the Tmax (in vivo; po, Tmax) was 6.33 h and the Tmax (in vivo; po, Tmax oral) was 8 h. The pIC50 (CYP2C9) was < 4.52, the inhibition at 10 µM (CYP2C9; human) was 11.4% and the inhibition at 30 µM (CYP2C9; human) was 21.6%. For the same molecule, the “binding to hERG receptor” value (hERG receptor) was “no binding”, the “Primary Screen (SH-SY5Y) sAPPα” value (sAPPα in SH-SY5Y cells) was “↑~20%” and the “Target α7” value (α7) was 1100 nM. For the same molecule, the “Aβ1-42 levels in vivo” value (AD model mouse) was “did not change”, the “Aβ40/42 ratio in vivo” value (AD model mouse) was “not changed” and the sAPPα in vivo (AD model mouse) was “increased significantly”. For the same molecule, the “sAPPα/Aβ1-42 ratio in vivo” value (AD model mouse) was “not increased”, the “sAPPα/sAPPβ ratio in vivo” value (AD model mouse) was “significantly greater increase with C41 than F03” and the sAPPβ in vivo (AD model mouse) was “greater decrease in sAPPβ than F03”. For the same molecule, the “short-term working object memory (novel object preference)” value (AD model mouse) was “approximately 85 % of NTg level” and the “spatial memory, novel location recognition test” value (AD model mouse) was “improved spatial memory”.
